Laboratory results as given in patent US20020123525A1, “Cardioprotective composition and uses thereof” (GESTILAB INC., priority 1999, published 2002).

What was measured:
[1] = tested on: isolated rat heart; assay: Cardioprotection in electrolysis-induced ROS on isolated rat heart; conditions: Heart (ex vivo)
Experimental: (§1) All experiments were conformed to rules of the Guide for the care and use of laboratory animals published by the U.S. National Institutes of Health (NIH publication No 85-23, revised 1985). Adult male Wistar rats (225-250 g) were anaesthetized with sodium pentobarbitone (0.1 ml/100 g body weight) and then heparinised (500 Ul intra-peritoneally). Hearts were rapidly excised, placed in ice-cold oxygenated KH buffer solution, cleaned and then mounted on a modified Langendorff heart perfusion apparatus.
Hearts were cannulated via the aorta and retrogradely perfused at a constant perfusion pressure (90 mm Hg at 37° C.) with modified KH buffer. This solution was continuously gassed with a mixture of 95% O2 and 5% CO2 to maintain a pH of 7.4 at 37° C. […]
A saline-filled latex balloon was inserted into the left ventricle by way of the AV valve and connected via a polyethylene cannula to a pressure transducer for determination of Left Ventricular Pressure (LVP) and Left Ventricular End Diastolic Pressure (LVEDP). […] The LVP, LVEDP, and ECG were recorded on a Nihon-Kohden polygraph (RM 600); heart rate (HR) was calculated from the electrogram. Coronary flow (CF) was measured by time collection of coronary effluent at various times during the experiment. […]
The cardiodynamic variables were monitored during all the experimental period.

[2] = tested on: isolated rat heart; assay: Cardioprotection and reperfusion-induced arrhythmias in regional ischemia-reperfusion of isolated rat heart; conditions: Heart (ex vivo)
Experimental: as §1
Hearts were cannulated via the aorta and retrogradely perfused at a constant perfusion pressure (90 mm Hg at 37° C.) with modified KH buffer. […]
A saline-filled latex balloon was inserted into the left ventricle by way of the AV valve and connected via a polyethylene cannula to a pressure transducer for determination of Left Ventricular Pressure (LVP) and Left Ventricular End Diastolic Pressure (LVEDP). […] The LVP, LVEDP, and ECG were recorded on a Nihon-Kohden polygraph (RM 600); heart rate (HR) was calculated from the electrogram. Coronary flow (CF) was measured by time collection of coronary effluent at various times during the experiment.
Hearts were perfused for a 20 min control period with KH buffer, for stabilization. […] Left ventricular pressure and epicardial ECG were continuously monitored before and during ischemia and reperfusion. […]

[3] = In vitro antioxidant capacity, inhibition of DPD oxidation by electrolyzed KH buffer
Description: Oxidation rate of N,N-diethyl-p-phenylenediamine (DPD) by a prooxidant system was used as a general reporter of the amount of ROS generated by that system (Anonymous, 1985; Chahine et al., 1991). Antioxidant capacity of preparations of TRIAD (or of its components) was defined as the extent (%) to which they inhibited the oxidation of DPD by prooxidants. To estimate the antioxidant capacity of TRIAD preparations in the conditions encountered during perfusion of hearts with electrolyzed buffer, 0.6 ml of modified KH not containing (control situation corresponding to 0% inhibition) or containing various concentrations of TRIAD, TRIAD (S2) or their components was subjected to 1-min electrolysis at 10 mA and then mixed with 0.3 ml of the non-electrolyzed counterpart of the solution to which 95 mM DPD was added. Determination of the amount of oxidized DPD was immediately done by reading absorbencies a 515 nm.

CC(=O)C(=O)[O-].[Na+] [Pyruvate, sodium pyruvate]
Effect of fatty acids and vitamin E on action of pyruvate, the component that mostly contributed to antioxidant action [1]: (Pyruvate, ↑) | Effect of fatty acids and vitamin E on action of pyruvate, the component that mostly contributed to antioxidant action [2]: (Pyruvate, ↓) | Effect of fatty acids and vitamin E on action of pyruvate, the component that mostly contributed to antioxidant action ([3]; DPD (in vitro), electrolysis): (Pyruvate, ↑) | Antioxidant capacity (ROS scavenging) in vitro, comparison ([3]; electrolysis pro-oxidant system, DPD method, same concentrations): only a slightly lower ROS scavenging capacity
